Experimental data: ChEMBL document CHEMBL1201862, “PubChem BioAssay data set” (2004)
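Cells were grown in 96-well plates and exposed to each compound for 48 hours at five concentrations; endpoints were interpolated linearly between bracketing concentrations, or set to the highest concentration if not reached. The concentration for 50% growth inhibition is given as GI50.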 Calls of active or inactive are those of the source. No stated cut-off is given here; in the data, active = GI50 up to about 1.1 µM and inactive = higher.

Legend:
Test in all cases: inhibition of tumour cell growth, NCI panel, 48 h
[1] = tested on: 786-0
[2] = tested on: A549
[3] = tested on: ACHN
[4] = tested on: CAKI-1
[5] = tested on: CCRF-CEM
[6] = tested on: COLO 205
[7] = tested on: DLD-1
[8] = tested on: DMS-114
[9] = tested on: DMS-273
[10] = tested on: EKVX
[11] = tested on: HCC 2998
[12] = tested on: HCT-116
[13] = tested on: HCT-15
[14] = tested on: HL-60
[15] = tested on: HOP-18
[16] = tested on: HOP-62
[17] = tested on: HOP-92
[18] = tested on: HT-29
[19] = tested on: IGROV-1
[20] = tested on: K562
[21] = tested on: KM-20L2
[22] = tested on: KM12
[23] = tested on: LOX IMVI
[24] = tested on: LXFL 529
[25] = tested on: M14
[26] = tested on: M19-MEL
[27] = tested on: MOLT-4
[28] = tested on: Malme-3M
[29] = tested on: NCI-H226
[30] = tested on: NCI-H23
[31] = tested on: NCI-H460
[32] = tested on: OVCAR-3
[33] = tested on: OVCAR-4
[34] = tested on: OVCAR-5
[35] = tested on: OVCAR-8
[36] = tested on: RPMI-8226
[37] = tested on: RXF 393
[38] = tested on: RXF 631
[39] = tested on: SF-268
[40] = tested on: SF-295
[41] = tested on: SF-539
[42] = tested on: SK-MEL-28
[43] = tested on: SK-MEL-2
[44] = tested on: SK-MEL-5
[45] = tested on: SK-OV-3
[46] = tested on: SN12C
[47] = tested on: SNB-19
[48] = tested on: SNB-75
[49] = tested on: SNB-78
[50] = tested on: SR
[51] = tested on: SW-620
[52] = tested on: TK-10
[53] = tested on: U-251
[54] = tested on: UACC-257
[55] = tested on: UACC-62
[56] = tested on: UO-31
[57] = tested on: NCI-H522

Measured: GI50

CC(C)(C)C[P+](C)(C)c1ccccc1
> 100 µM: [13]
inactive: [1] > 100 µM | [2] 89.5 µM | [3] > 100 µM | [4] > 100 µM | [5] > 100 µM | [6] > 100 µM | [7] > 100 µM | [8] > 100 µM | [9] > 100 µM | [10] > 100 µM | [11] > 100 µM | [12] > 100 µM | [14] 67.1 µM | [15] > 100 µM | [16] > 100 µM | [17] > 100 µM | [18] > 100 µM | [19] > 100 µM | [20] 34.4 µM | [21] 83 µM | [22] > 100 µM | [23] > 100 µM | [24] > 100 µM | [25] > 100 µM | [26] > 100 µM | [27] > 100 µM | [28] > 100 µM | [29] > 100 µM | [30] > 100 µM | [31] > 100 µM | [32] 91.2 µM | [33] > 100 µM | [34] 76 µM | [35] > 100 µM | [36] > 100 µM | [37] > 100 µM | [38] > 100 µM | [39] > 100 µM | [40] > 100 µM | [41] > 100 µM | [42] > 100 µM | [43] > 100 µM | [44] > 100 µM | [45] > 100 µM | [46] > 100 µM | [47] > 100 µM | [48] > 100 µM | [49] > 100 µM | [50] > 100 µM | [51] > 100 µM | [52] > 100 µM | [53] > 100 µM | [54] > 100 µM | [55] > 100 µM | [56] > 100 µM

COc1ccc2[nH]c3c(cnn4cnnc34)c2c1
active: [44] 0.262 µM
> 100 µM: [13]
inactive: [1] > 100 µM | [2] > 100 µM | [3] > 100 µM | [4] > 100 µM | [5] > 100 µM | [6] > 100 µM | [7] > 100 µM | [8] > 100 µM | [9] > 100 µM | [10] 23.3 µM | [11] > 100 µM | [14] > 100 µM | [15] > 100 µM | [16] > 100 µM | [17] > 100 µM | [18] > 100 µM | [19] > 100 µM | [20] > 100 µM | [21] > 100 µM | [22] > 100 µM | [23] > 100 µM | [24] > 100 µM | [25] > 100 µM | [26] > 100 µM | [27] > 100 µM | [28] > 100 µM | [30] > 100 µM | [31] > 100 µM | [57] > 100 µM | [32] > 100 µM | [33] > 100 µM | [34] > 100 µM | [35] > 100 µM | [36] > 100 µM | [37] > 100 µM | [38] > 100 µM | [39] > 100 µM | [40] > 100 µM | [41] > 100 µM | [42] > 100 µM | [43] > 100 µM | [45] > 100 µM | [46] > 100 µM | [47] > 100 µM | [48] > 100 µM | [51] > 100 µM | [52] > 100 µM | [53] > 100 µM | [54] > 100 µM | [55] > 100 µM | [56] > 100 µM
